Laboratory results published in patent US9283209B2, “Oral formulations of deferasirox” (NOVARTIS AG, priority 2013, dated 2016).
In brackets after ≈: the same amount, converted by molar mass. Where two headings read alike, the source gives them in different places.

Columns and labels:
[1] = Study 2209: one year study in NTDT patients, GI adverse event rates; assay type: in vivo, human; conditions: 10 mg/kg
From the text: The new Exjade formulations represent a significant improvement in patient care and support compliance with chelation therapy because of the improved pharmaceutical properties and because of the changes in composition. […] Exjade currently also contains lactose and so is not recommended in patients with rare hereditary problems of galactose intolerance, the Lapp lactase deficiency, glucose-galactose malabsorption or severe lactase deficiency. Novartis believes the exclusion of lactose and sodium lauryl sulfate in the new formulations will improve the gastrointestinal tolerability of the product.

[2] = Randomized crossover bioequivalence study, Exjade dispersed in fruit juice or water; assay type: in vivo, human; conditions: single 20 mg/kg dose, 28 healthy volunteers, 2.5 to 5 hours after intake
From the text: (§1) Deferasirox Cmax values in healthy volunteers are generally higher than in patients. Two healthy volunteer studies in the initial registration package in 2005 were therefore reviewed for potential Cmax-related adverse events.

[3] = test system: serum creatinine, creatinine clearance; conditions: human, in vivo
Experimental: In addition, a new analysis of creatinine and creatinine clearance changes was performed to explore whether deferasirox-associated renal changes are a function of peak exposure (Cmax) or of overall exposure (AUC). The analysis used data from the large multicenter study 7, in which Ctrough (a proxy of AUC) and deferasirox C2h (a proxy of Cmax) was collected at multiple time points.
Based on study 7 data, the relationship between PK parameters at steady state (Ctrough and C2h) and serum creatinine was investigated by using a linear mixed model of log-transformed creatinine values (1990 observations at week 12 and 28) with patient included in model as a random effect. After log-transformation, baseline creatinine levels, C2h and Ctrough were included as predictors in the model.

[4] = Exjade (deferasirox) solubility profile at 37 C; assay type: physicochemical
From the text: Due to the poor solubility of Exjade™ (deferasirox), a high dose is required to achieve the desired therapeutic effect, which results in unwanted side effects, such as gastrointestinal (GI) irritation and kidney toxicity. […] To meet the high dose requirement and reduce pill burden Exjade™ (deferasirox) was developed as dispersible tablets with about 29.4% drug load. The disadvantage of this type of formulation is that the tablets have to be dispersed in water or appropriate liquid, such as in orange juice or apple juice and stirred until a fine suspension is obtained prior to administration. Further, the dispersible tablets have to be taken at least 30 minutes before food.

[5] = Patient study A0105F: Exjade after high-fat breakfast; assay type: in vivo, human; conditions: patients
Experimental: (§2) Therefore, patients would only be exposed to the highest approved dose (40 mg/kg/day for the current formulation) after an extended period of up-titration with confirmed tolerability • the absence of a significant food effect results in a lower risk of increased exposure when the drug is taken with a meal.

QT interval = experiment: Thorough QT healthy volunteer study; assay type: in vivo, human
Experimental: as §2, §1

[6] = Thorough QT healthy volunteer study; assay type: in vivo, human; conditions: human, in vivo, oral, 40 mg/kg, 40 mg/kg immediately after a high-fat breakfast, 44 healthy volunteers
Experimental: as §2, §1

[7] = 40 mg/kg after high-fat breakfast, 44 volunteers

HV subjects reporting loose stools [2]: three
Estimate, Log (C2h) [3]: 0.03287
Estimate, Log (Ctrough) [3]: 0.06504
Estimate, Log (baseline creatinine) [3]: 0.9593
Estimate, Log(C2h) [3]: −0.00203
Estimate, Log(Ctrough) [3]: 0.9346
Estimate, Log(baseline creatinine clearance) [3]: −10.3474
OR for a 2-fold increase in PK parameter, Log(C2h) [3]: 0.999
OR for a 2-fold increase in PK parameter, Log(Ctrough) [3]: 1.911
OR for a 30% increase in PK parameter, Log(Ctrough) [3]: 1.278
Slope of linear regression between Day 1 C2h and percent change in serum creatinine at week 4 [3]: 0.03 (−0.01, 0.08)
solubility ([4]; aqueous buffer, pH 3, 37 C): < 10 µg/mL
solubility ([4]; aqueous buffer, pH 4, 37 C): < 10 µg/mL
solubility ([4]; aqueous buffer, pH 5, 37 C): < 10 µg/mL
solubility ([4]; aqueous buffer, pH 7.5, 37 C): 167 µg/mL (≈ 447 µM)
solubility ([4]; simulated gastric fluid, pH 1, 37 C): < 10 µg/mL
solubility ([4]; simulated gastric fluid, pH 2, 37 C): < 10 µg/mL
solubility ([4]; water, 37 C): 20 µg/mL (≈ 53.6 µM)
Change in exposure after a high-fat breakfast [5]: nearly doubled
SMILES: O=C(O)c1ccc(-n2nc(-c3ccccc3O)nc2-c2ccccc2O)cc1 [deferasirox]
GI adverse event rate [1]: 36.4%
GI symptoms (diarrhea/loose stools, flatulence, and nausea) (QT interval; [7]): 18%
Headache and dizziness, one patient each (QT interval; [7]): 2%
Effect on the QT interval (QT interval; healthy volunteers, doses up to 40 mg/kg): no effect
Cmax ([6]; read-out: Cmax (average)): 256 µM
Cmax ([6]; read-out: Cmax (range)): 134 to 472 µM
